Reference: US20220193111A1, “Method of Treatment” (The University Court of the University of Edinburgh, priority 2018, published 2022)

Key:
Assay type in all cases: cell-based, human
HUVECs [1] = assay: ECIS plasma membrane capacitance analysis; details: HUVECs knock-down for miR-148b
Protocol: Confluent HUVECs were transfected with controls or miR-148b mimic or anti-miR-148b and, plated on the ECIS chip array (8W1E or 8W10E). The migration speed was calculated in μm/h, capacitance of the plasma membrane is Cm (μF/cm^2) as reported in Giaever, I, and Keese, C R (1991)^29.

HUVECs [2] = assay: Gene (qPCR) and protein (Western blot) expression in transfected HUVECs
Protocol: (§1) Human umbilical vein ECs (HUVECs; Lonza) were grown in EGM-2 (comprising EBM-2 with growth factors and other supplements) with 2% Foetal Bovine Serum. Confluent HUVECs were treated with 10 ng/ml TNF-α, IL-1β, TGFβ2 (PeproTech); medium and cytokines were changed every two days. SB431542 (Tocris) has been used at the dose of 10 μM. HEK293T cells (ATCC®, CRL-11268) were cultured in D-MEM with 10% FBS (Life Technologies).
(§2) Total RNA was extracted using miReasy kit (Qiagen). Real-time quantification to measure miRNAs was performed with the TaqMan miRNA reverse transcription kit and miRNA assay (Life Technology) using Lightcycler 480 (Roche). miRNAs expression was normalized to the U6 […] (snRU6). For mRNA analysis, cDNA was amplified by quantitative real-time PCR (qPCR) and normalized to 18S ribosomal RNA. Each reaction was performed in triplicate. Quantification was performed by the 2^−ΔΔCt method^52. qPCR was used to measure the expression of miR-148b (miR-148b-3p Thermo Fisher Scientific, Cat. #4426961), snRU6 (ThermoFisher Scientific, Cat. #4331182), TGFβ2, SMAD2, CD31, VE-Cadherin, COL1A1, α-SMA, SLUG, VIM, SNAIL, TWIST, ZEB1/2 and 18S rRNA. Primers are pre-designed from Sigma (KiCgStart™ Primers).
(§3) Lipofectamine RNAiMAX (Thermo Fisher Scientific) was used to transfect HUVECs with miR-148b mimic, anti-miR-148b and mimic or anti-miR control (25 nM and […], respectively final concentration) or with siRNA targeting SMAD2 (20 nM final concentration), according to the manufacturer's instructions. jetPEI-HUVECs (Polyplus) was used to transfect HUVECs with DNA plasmids. The following functional assays were performed: BrdU incorporation assay using Cell Proliferation colorimetric assay (Roche); Matrigel assay with HUVECs was performed as previously described using BD Matrigel Basement Membrane Matrix (BD Biosciences)^53.
(§4) Proteins were extracted from cultured cells or muscles by using ice-cold buffer A (50 mM Hepes, 150 mM NaCl, 1 mM EDTA, 1 mM EGTA, 25 mM NaF, 5 mM NaPPi, 1%Triton, 1% NP40, 1 mM Na3VO4, 0.25% sodium deoxycholate, 0.5 mM Na-orthovanadate, 1 mM benzamidine, 0.1 mM phenylmethylsulfonyl fluoride). Protein concentration was determined using the Bio-Rad Protein Assay Reagent (Bio-Rad Laboratories, UK). Detection of proteins by Western blot analyses was done following separation of whole cell extracts (20 μg) on SDS-polyacrylamide gels. Proteins were transferred to nitrocellulose membranes and probed with the following antibodies: TGFβ2 (Abcam, ab36495, 1:1000), SMAD2 (SantaCruz Biotechnology, Santa Cruz, Calif., USA; #3102, 1:1000), p-SMAD2 (465/467) (Cell Signaling; #3108, 1:1000); CD31 (Abcam., 1:1000), VE-Cadherin (Abcam, ab33168, 1:1000), COL1A1 (Abcam, ab138492, 1:200), FSP-1 (5100A4; Abcam, ab41532, 1:1000), SLUG (Abcam, ab27568, 1:1000), β-actin (Abcam, ab16039, 1:4000), HDAC3 (GeneTex GTX113303, 1:1000) and GAPDH (GeneTex, GT239, 1:1000) (both used as loading control). For detection, the inventors used secondary antibodies conjugated to horseradish peroxidase which were rabbit anti-mouse (Abcam, ab97046, 1:5000) and goat anti-rabbit (Abcam, ab6721, 1:10000). Detection was developed by chemiluminescence reaction (ECL) (Immunoblot, Millipore, 23225).

[3] = tested on: HUVECs treated with TNF-α/IL-1β; assay: Rescue of TNF-α/IL-1β-induced EndMT in HUVECs; details: mimic-transfected HUVECs, TNF-α/IL-1β 6 days
Protocol: as §1, §2, §3, §4
Cells were fixed using 4% paraformaldehyde in PBS at room temperature for 15 min. For intracellular staining, fixed cells were permeabilized using 0.5% Triton X-100 in PBS (Sigma-Aldrich) or 0.1% Saponin in PBS at room temperature for 10 min. The blocking of […] antibody activity was performed using 3% bovine serum albumin (BSA) in PBS for 1 hour. Samples were incubated with antibodies to CD31 (Abcam, ab28364, 1:50), VE-cadherin (Abcam, ab33168, 1:100), FSP-1 (Abcam, ab41532, 1:200) and COL1A1 (Abcam, ab138492, 1:100) in PBS containing 1% BSA at 4° C. overnight. […]

3′UTR of SMAD2 = assay: Luciferase reporter assay, wild-type 3′UTR of SMAD2; details: 48 h post-co-transfection, HEK293T cells or HUVECs; mutation of the binding sites restored it
From the text: (§5) Luciferase assay has been performed as previously described^53. TGFB2 3′-UTR and SMAD2 3′-UTR vectors were cloned in pMIR-Reporter (Life Technology). Primers are used for the cloning are: TGFβ2 3′UTR: Forward 5′-[…]-3′ (SEQ ID NO: 7), Reverse 5′-[…]-3′ (SEQ ID NO: 8); SMAD2 3′UTR: Forward 5′-[…]-3′ (SEQ ID NO: 9), Reverse 5′-[…]-3′ (SEQ ID NO: 10). Primers for 3′UTR mutation: TGFB2: Forward […] (SEQ ID NO: 11) and Reverse […] (SEQ ID NO: 12); SMAD2 Forward […] (SEQ ID NO: 13) and Reverse […] (SEQ ID NO: 14). Luciferase constructs were transfected into HEK293T cells or HUVECs together with miR-148b mimics or p-SV-beta-Gal control vector. Cells were cultured for 48 h and assayed with the Luciferase and β-Galactosidase Reporter Assay Systems (Promega). Luciferase values were normalized to protein concentration and β-galactosidase activity.

3′UTR of TGFB2 = assay: Luciferase reporter assay, wild-type 3′UTR of TGFB2; details: 48 h post-co-transfection, HEK293T cells or HUVECs; mutation of the binding sites restored it
From the text: as §5

Row | Molecule | membrane capacitance (Cm) (HUVECs [1]) | expression of target genes TGFB2 and SMAD2 (mRNA) (HUVECs [2]; anti-miR 75 mM, 48 hrs) | CD31 and VE-cadherin (Western blot) (HUVECs [2]; anti-miR, 48 hrs) | SLUG (Western blot) (HUVECs [2]; anti-miR, 48 hrs) | SLUG expression (mRNA) (HUVECs [2]; anti-miR, 48 hrs) | TGFB2, SMAD2 and its phosphorylation (Western blot) (HUVECs [2]; anti-miR, 48 hrs) | expression of CD31 and VE-Cadherin (mRNA) (HUVECs [2]; anti-miR, 48 hrs) | expression of COL1A1 and FSP-1 (mRNA) (HUVECs [2]; anti-miR, 48 hrs) | mesenchymal markers COL1A1, FSP-1 (Western blot) (HUVECs [2]; anti-miR, 48 hrs) | α-SMA or vimentin (VIM) levels (HUVECs [2]; anti-miR, 48 hrs) | CD31 and VE-cadherin, mRNA and protein levels [3] | COL1A1 and FSP-1 staining (immunostaining) [3] | TGFB2, SMAD2, SLUG, FSP-1, COL1A1 (mRNA and protein) [3] | endothelial markers CD31 and VE-cadherin on ECs membrane (immunostaining) [3] | phosphorylation of SMAD2 [3] | luciferase activity, 3′-UTR-SMAD2 reporter (3′UTR of SMAD2) | luciferase activity, 3′-UTR-TGFB2 reporter (3′UTR of TGFB2) | target gene (TGFB2, SMAD2) mRNA (HUVECs [2]; mimic 25 nM) | target gene (TGFB2, SMAD2) protein levels (HUVECs [2]; mimic 25 nM, Western blot) | expression of ACVR1 and ROCK1 (HUVECs [2]; mimic transfection)
1 | anti-miR-148b: miR-148b inhibitor oligonucleotide; suitable inhibitor: hsa-miR-148b-3p miRCURY LNA inhibitor, CAAAGTTCTGTGATGCACTG (SEQ ID NO: 6) (commercial miRCURY LNA inhibitor, LNA positions not given here) | increased | increased | suppression | up-regulation | strong up-regulation | upregulation | decreased | increased | appearance | without detectable changes |  |  |  |  |  |  |  |  |  | 
2 | miR-148b mimic: miR-148b mimic oligonucleotide; in a particular embodiment has SEQ ID NO: 1, the human precursor miR-148b sequence (nucleic acid, listed as RNA, chemistry not given here) CAAGCACGAUUAGCAUUUGAGGUGAAGUUCUGUUAUACACUCAGGCUGUGGCUCUCUGAAAGUCAGUGCAUCACAGAACUUUGUCUCGAAAGCUUUCUA |  |  |  |  |  |  |  |  |  |  | rescued | decrease | decreased | maintenance | reduced | decreased luciferase activity | decreased luciferase activity | reduced | reduced | did not affect
